The source of these data is article PMC9395490, “An open-label, crossover study to compare different formulations and evaluate effect of food on pharmacokinetics of pimitespib in patients with advanced solid tumors” (Investigational New Drugs, 2022).

Data set [1] in a line: PK evaluation period, Cohort 1: single dose of Formulation A vs Formulation B under fasting conditions (crossover). The format is in vivo, patients with advanced solid tumors. The procedure: This clinical, pharmacological, multicenter study was conducted in Japan and consisted of two cohorts (Cohorts 1 and 2) and two periods. The patients were first assigned to the pharmacokinetic evaluation period to investigate PK parameters of each formulation (Cohort 1) or the effect of food (Cohort 2), and then to the consecutive administration period (Supplementary Fig. 1).
In both cohorts, a randomized cross-over design was used.
For fasting conditions, patients were required to fast at least 10 h before dosing and at least 4 h after dosing and abstain from drinking water 1 h before and after administration, excluding the water consumed at the time of dosing. For fed conditions, patients were required to fast for at least 10 h before dosing and at least 4 h after dosing (except for the scheduled study meal) and abstain from drinking for 1 h before and after administration, except for drinking water. The study drug was administered within 30 min of completing the meal. The study meal was a high-fat (approximately 50% of the total caloric content of the meal) and high-calorie (572–715 kcal) meal considering the weight ratio of Japanese to American individuals. The meal’s nutritional value was adjusted based on the body weight of Japanese patients according to the US FDA standard guidance. It was recommended that study drug dosing be done with 100–200 (usually 150) mL of water.
Patients underwent hematologic, coagulation, biochemical laboratory examinations, urinalysis, electrocardiogram, ophthalmologic examination, and vital sign and body weight assessments. Blood collection occurred before pimitespib administration and at 0.5, 1, 2, 4, 6, 8, 10, 24, and 48 h after administration at the first and second doses.
For Cohort 1 analyses, the values of the natural log-transformed PK parameters (Cmax, AUClast, AUCinf, terminal elimination rate constant [λz], and mean residence time) were analyzed using analysis of variance (ANOVA), using Phoenix® WinNonlin® Ver. 8.1. […] The time to maximum plasma concentration (tmax) was not transformed and was analyzed using Wilcoxon’s signed-rank test, conducted using EXSUS version 10.0.3. The significance level was set at 5%.

Data set [2] relates to patients with advanced solid tumors. On the set-up: method as in PMID 30679388. The following applies: phase I; cited from earlier work.
A short description of data set [3]: PK evaluation period, Cohort 2: food effect, single dose of Formulation A under fed vs fasting conditions (crossover). The format is in vivo, patients with advanced solid tumors.
Procedure: For fasting conditions, patients were required to fast at least 10 h before dosing and at least 4 h after dosing and abstain from drinking water 1 h before and after administration, excluding the water consumed at the time of dosing. For fed conditions, patients were required to fast for at least 10 h before dosing and at least 4 h after dosing (except for the scheduled study meal) and abstain from drinking for 1 h before and after administration, except for drinking water. The study drug was administered within 30 min of completing the meal. The study meal was a high-fat (approximately 50% of the total caloric content of the meal) and high-calorie (572–715 kcal) meal considering the weight ratio of Japanese to American individuals. […]
For the analyses related to Cohort 2, the ANOVA model included treatment (fasting and fed conditions), treatment period, and treatment sequence as fixed effects, and patients nested within treatment sequence as a random effect. The GMR and 90% CI of the fed condition to the fasting condition were calculated.
For data set [4], the system named is patients with advanced GIST. On the set-up: method as in PMID 31536852. Conditions: phase II, advanced GIST failed or intolerant to imatinib, sunitinib, regorafenib; cited from earlier work.
Data set [5] concerns patients with advanced GIST. More on the design: method as in doi:10.1200/JCO.2021.39.15_suppl.11524. Conditions: phase III, cited from earlier work.

Like-named read-outs stand apart in the source and are kept apart here.

Turning to `CCc1cc(C(N)=O)ccc1-n1nc(C(C)C)c2c(-n3cnc(-c4cnn(C)c4)c3)ccnc21` [pimitespib, Pimitespib], in data set [1], the “inter-subject CV% for AUCinf” value turned out to be 54.4%, the “inter-subject CV% for AUClast” value came to 52.6%, the “inter-subject CV% for Cmax” value was 63.8% and the “intra-subject CV% for AUCinf” value was determined as 24.9%. In addition, in data set [1], the “intra-subject CV% for AUClast” value is 24.4% and the “intra-subject CV% for Cmax” value is on record as 28.5%. For the same compound, in data set [2], the “patients with GIST achieving a partial response” value was “one” and the “patients with non-small cell lung cancer achieving a partial response” value is “two”. Also, in data set [3], the “AUC under fed conditions, fold higher than under fasting conditions” value was around 1.6 fold and the “Cmax under fed conditions, fold higher than under fasting conditions” value is given as “approximately 1.9 fold”. In data set [4], the “median PFS” value was 4.4 months. Besides, in data set [5] (advanced GIST refractory or intolerant to imatinib, sunitinib, regorafenib), the “median PFS” value was 2.8 months. In addition, the “hazard ratio (HR) for PFS” value in data set [5] (pimitespib vs placebo) was 0.51.
